# What was measured:
# BI-2493 [1] = compound: T1, C[C@H]1CNCCN1c1nccc(-c2noc3c2CCC[C@@]32CCCc3sc(N)c(C#N)c32)n1 [BI-2493]; conditions: 5 days
# Experimental: (§1)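 PRISM pooled barcoded cancer cell line viability screen (Broad Institute) with BI-2493 at 8 doses in threefold dilutions from 0.00457 to 10 µmol/L, 5-day treatment; curves fitted per cell line. IC50 is undefined (placeholder) for resistant lines. AUC is capped at 1, and sensitivity is reported as 1 − AUC.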
# BI-2493 [2] = compound: T1, BI-2493; experiment: 1 - AUC of viability dose-response curve (sensitivity) (fraction); higher = more sensitive; conditions: 5 days
# Experimental: as §1
Test System,IC50 of cell viability (BI-2493 [1]) [µM],1 - AUC of viability dose-response curve (BI-2493 [2])
8MGBA_CENTRAL_NERVOUS_SYSTEM,6.11,0.0867
22RV1_PROSTATE,5.65,0.111
42MGBA_CENTRAL_NERVOUS_SYSTEM,> 10,0.073
93T449_SOFT_TISSUE,9.31,0.0121
94T778_SOFT_TISSUE,5.6,0.112
143B_BONE,8.98,0.0198
253JBV_URINARY_TRACT,6.75,0.0713
253J_URINARY_TRACT,4.76,0.0834
639V_URINARY_TRACT,> 10,0.116
647V_URINARY_TRACT,7.05,0.0938
697_HAEMATOPOIETIC_AND_LYMPHOID_TISSUE,8.3,0.0309
769P_KIDNEY,6.88,0.0662
786O_KIDNEY,2.69,0.241
921_UVEA,4.34,0.13
1618K_TESTIS,2.47,0.206
1777NRPMET_TESTIS,9.43,0.0116
5637_URINARY_TRACT,5.2,0.225
8305C_THYROID,9.71,0.00549
8505C_THYROID,9.69,0.00728
9505BIK_PANCREAS,1.57,0.321
2313287_STOMACH,1.34,0.233
A3KAW_HAEMATOPOIETIC_AND_LYMPHOID_TISSUE,3.54,0.191
A101D_SKIN,8.09,0.0656
A172_CENTRAL_NERVOUS_SYSTEM,4.33,0.178

Test System,IC50 of cell viability (BI-2493 [1]) [µM],1 - AUC of viability dose-response curve (BI-2493 [2])
A204_SOFT_TISSUE,4.24,0.163
A253_SALIVARY_GLAND,4.12,0.197
A375_SKIN,9.23,0.016
A388_SKIN,> 10,0.0151
A427_LUNG,0.735,0.349
A498_KIDNEY,5.88,0.113
A549_LUNG,2.17,0.207
A673_BONE,9.04,0.0226
A704_KIDNEY,9.08,0.0519
A1207_CENTRAL_NERVOUS_SYSTEM,7.21,0.179
A2058_SKIN,5.91,0.0892
A2780_OVARY,5.15,0.103
ABC1_LUNG,7.12,0.0666
ACCMESO1_PLEURA,9.66,0.00668
ACHN_KIDNEY,6.46,0.133
AGS_STOMACH,0.844,0.313
ALLSIL_HAEMATOPOIETIC_AND_LYMPHOID_TISSUE,9.13,0.033
AM38_CENTRAL_NERVOUS_SYSTEM,4.3,0.101
AMO1_HAEMATOPOIETIC_AND_LYMPHOID_TISSUE,5.6,0.088
AN3CA_ENDOMETRIUM,4.74,0.142
ANGMCSS_CENTRAL_NERVOUS_SYSTEM,> 10,0.0225
ASPC1_PANCREAS,2.11,0.32
AU565_BREAST,6.01,0.0935
BC3C_URINARY_TRACT,5.1,0.193

Test System,IC50 of cell viability (BI-2493 [1]) [µM],1 - AUC of viability dose-response curve (BI-2493 [2])
BCPAP_THYROID,6.5,0.0703
BDCM_HAEMATOPOIETIC_AND_LYMPHOID_TISSUE,> 10,0.0903
BECKER_CENTRAL_NERVOUS_SYSTEM,9.55,0.00973
BEN_LUNG,1.62,0.264
BFTC905_URINARY_TRACT,6.41,0.114
BFTC909_KIDNEY,6.33,0.0855
BHT101_THYROID,7.97,0.0404
BHY_UPPER_AERODIGESTIVE_TRACT,5.93,0.0642
BICR6_UPPER_AERODIGESTIVE_TRACT,4,0.178
BICR16_UPPER_AERODIGESTIVE_TRACT,5.24,0.263
BICR18_UPPER_AERODIGESTIVE_TRACT,4.16,0.147
BICR22_UPPER_AERODIGESTIVE_TRACT,4.66,0.137
BICR31_UPPER_AERODIGESTIVE_TRACT,6.97,0.0764
BICR56_UPPER_AERODIGESTIVE_TRACT,4.72,0.152
BICR78_UPPER_AERODIGESTIVE_TRACT,5.51,0.173
BL2_HAEMATOPOIETIC_AND_LYMPHOID_TISSUE,4.45,0.183
BLUE1_HAEMATOPOIETIC_AND_LYMPHOID_TISSUE,3.33,0.129
BOKU_CERVIX,> 10,0.119
BONNA12_HAEMATOPOIETIC_AND_LYMPHOID_TISSUE,> 10,0.117
BT12_SOFT_TISSUE,5.51,0.17
BT16_SOFT_TISSUE,> 10,0.189
BT474_BREAST,9.18,0.0542
BT549_BREAST,8.89,0.0828
BV173_HAEMATOPOIETIC_AND_LYMPHOID_TISSUE,1.67,0.344
